In US20230321064A1, “Products for Treating the JNCL Disease” (Beyond Batten Disease Foundation, priority 2020, published 2023):
Where two headings read alike, the source gives them in different places.

Assays:
Type in all cases: in vivo, mouse
Cln3^Δex7-8 mice [1] = assay: Microglial activation, CD68 immunohistochemistry in brain sections; conditions: analyzed regions VPM/VPL, DLG, S1BF, V1 (FIG. 2A-D)
Protocol: (§1) Cln3^Δex7-8 mice were obtained from the Jackson Laboratory. Control (C57BL/6J) and Cln3^Δex7-8 mice were housed 3-4 per cage in a room with a 12-h light/12-h dark cycle. Food and water were provided ad libitum. All mice used in this study were analyzed at 8 and 12 months of age and were littermates produced by crossing heterozygous Cln3^Δex7-8 mice. Only males were used for this analysis. Investigators were blinded when analyzing the data, and no randomization was necessary.
(§2) For oral administration, Trehalose was dissolved in drinking water to a final concentration of 2% and changed twice a week. Trehalose-containing water was given to Cln3^Δex7-8 mice and WT mice by spontaneous oral administration starting at 21 days of age and continuing until the day the mice were sacrificed for neuropathology studies.
(§3) Miglustat was administered in mixture with the food pellet starting at 21 days of age and continuing until the day the mice were sacrificed for neuropathology studies. Miglustat food was prepared by TestDiet using the 5V5R rodent diet (LabDiet). Two concentrations were used: 1.2 g/Kg chow (indicated as “low concentration”) and 7.2 g/Kg chow (indicated as “high concentration”) and two separate groups of Cln3^Δex7-8 mice were fed with either diet. One additional group of Cln3^Δex7-8 l mice was fed with a combination of the low-concentration Miglustat food and 2% Trehalose water.
(§4) Twelve-month-old homozygous Cln3^Δex7-8 mice and age-matched controls (WT mice) were anaesthetized with isoflurane and transcardially perfused with PBS followed by 4% buffered paraformaldehyde in 0.1 M sodium phosphate buffer, pH 7.4. Brains were subsequently removed and postfixed overnight. Before sectioning, the brains were cryoprotected in a solution containing 30% sucrose in Tris-buffered saline (TBS: 50 mM Tris, pH 7.6). Consecutive 40 μm floating coronal sections were collected in 96-well plates. Series of sections were then stained with primary antisera against CD68 (AbD
(§5) Serotec, Cat. No. MCA1957), GFAP (DAKO, Cat. No. Z0334), Subunit C of mitochondrial ATP synthase (SCMAS; Abcam, Cat. No. ab181243), or cleaved caspase 3 (Asp175) (Cell Signaling, Cat. No. 9661S) followed by either rabbit anti-rat (VectorLab) or swine anti-rabbit (DAKO) secondary antibodies, and immunoreactivity detected with Vectastain ABC (avidin-biotin) kit (Vector) and diaminobenzidine as a chromogen.
Non-overlapping images were captured, on three consecutive sections, through each region of interest. All RGB images were captured via a live video camera (JVC, 3CCD, KY-F55B), mounted onto a Zeiss Axioplan microscope using a x 40 objective and saved as JPEGs. All parameters including lamp intensity, video camera set-up and calibration were maintained constant throughout image capturing. For quantification of storage and inflammation, images were analyzed using ImageJ analysis software (NIH), using an appropriate threshold that selected the foreground immunoreactivity above background. This threshold was then applied as a constant to all subsequent images analyzed per batch of animals and reagent used to determine the specific area of immunoreactivity for each antigen in each region. […] For quantification of cell death, images were analyzed manually and scored for the presence of apoptotic nuclei. […]
(S1BF), the primary visual (V1) cortex, and the dorsolateral geniculate (DLG) (Pontikis et al., 2005). To quantify microglial activation, antibodies against the microglial marker CD68 were used. […]

[2] = Blood PK of Trehalose after IV and PO administration, with and without PO Miglustat (LC-MS/MS); conditions: for Cmax / Tmax / AUC(0-inf): male, C57BL6/N, mouse, whole blood; for AUC(0-inf): read-out: AUC0-inf of Trehalose in blood (converted)
Protocol: LC-MS/MS bioanalytical methodologies were developed for the analysis of Trehalose, Miglustat and glucose in mouse whole blood and brain.
Blood samples were prepared as follows; 20 μL of whole blood was transferred to a 96 wellplate and diluted 1:1 with sterile distilled water. Samples were protein precipitated by addition of 160 μL of 2.5% of trichloroacetic acid (TCA). At the time of analysis, 1 volume of acetonitrile containing an internal standard was added in order to match the initial chromatography conditions, samples were centrifuged at 4350 rpm for 10 min at ambient temperature, and the resultant supernatant transferred for analysis on the LC-MS/MS.
The purpose of this example was to compare the blood PK of unlabelled high doses of Trehalose after IV and PO administration, with and without Miglustat PO dosing. For the IV comparison, Trehalose was dosed as an IV bolus dose 15 min after PO dosing of Miglustat. For the PO comparison Miglustat was dosed simultaneously with Trehalose. Fasted male C57BL6/N mice were dosed as detailed in Table III:
Blood samples were collected at pre-dose, 10, 20, 30, 60, 120 and 180 min post-dose for group 1 and 2 and at pre-dose, 15, 30, 45, 60, 120 and 180 min post-dose for group 3 and 4.

Cln3^Δex7-8 mice [3] = assay: Lysosomal storage in cerebellum (SCMAS staining); conditions: 12 months of age
Protocol: as §1
For oral administration, Trehalose was dissolved in drinking water to a final concentration of 2% and changed twice a week. […]
as §5
Non-overlapping images were captured, on three consecutive sections, through each region of interest. […] For quantification of storage and inflammation, images were analyzed using ImageJ analysis software (NIH), using an appropriate threshold that selected the foreground immunoreactivity above background. […]

Cln3^Δex7-8 mice [4] = assay: Astrocytosis, GFAP immunohistochemistry in brain sections
Protocol: as §1, §2, §3, §4, §5
Non-overlapping images were captured, on three consecutive sections, through each region of interest. All RGB images were captured via a live video camera (JVC, 3CCD, KY-F55B), mounted onto a Zeiss Axioplan microscope using a x 40 objective and saved as JPEGs. All parameters including lamp intensity, video camera set-up and calibration were maintained constant throughout image capturing. For quantification of storage and inflammation, images were analyzed using ImageJ analysis software (NIH), using an appropriate threshold that selected the foreground immunoreactivity above background. This threshold was then applied as a constant to all subsequent images analyzed per batch of animals and reagent used to determine the specific area of immunoreactivity for each antigen in each region. Data were plotted graphically as the mean percentage area of immunoreactivity per field ±s.e.m. for each region. For quantification of cell death, images were analyzed manually and scored for the presence of apoptotic nuclei. Data were plotted graphically as the mean number of apoptotic cells per field ±s.e.m. for each region. All analyses were performed blind to genotype and treatment.
[…] was also quantified by performing immunohistochemistry staining of brain sections of all test and control mice using anti-GFAP antibodies.

[5] = 1 g/kg trehalose IV + 150 mg/kg miglustat PO
[6] = 10 g/kg trehalose PO + 150 mg/kg miglustat PO

OC[C@H]1O[C@H](O[C@H]2O[C@H](CO)[C@@H](O)[C@H](O)[C@H]2O)[C@H](O)[C@@H](O)[C@@H]1O [Trehalose, α-D-glucopyranosyl α-D-glucopyranoside dihydrate]
microglial activation (CD68) (Cln3^Δex7-8 mice [1]): partially mitigated | Trehalose fold-change with miglustat dosing ([2]; 1 g/kg trehalose IV + 150 mg/kg miglustat PO vs 1 g/kg IV alone): 1.5 | increase of measured AUC of Trehalose by combined PO Miglustat ([2]; Trehalose via either IV or PO administration): > 1.5 fold | detection of Trehalose after oral administration ([2]; low doses such as 1 g/kg, oral): cannot be detected | Cmax ([2]; 1 g/kg trehalose IV): 3690 ± 153 µM | Tmax ([2]; 1 g/kg trehalose IV): 20 min | Cmax [2, 5]: 5490 ± 873 µM | Tmax [2, 5]: 20 min | AUC(0-inf) [2, 5]: 2990 µM·h | AUC(0-inf) ([2]; 1 g/kg trehalose IV): 1960 µM·h | Cmax [2, 6]: 189 ± 43.9 µM | Tmax [2, 6]: 15 min | AUC(0-inf) [2, 6]: 307 µM·h | increased storage in the cerebellum (SCMAS staining) (Cln3^Δex7-8 mice [3]): partially reduces this increased storage | astroglial activation (GFAP staining) in the VPM/VPL region (Cln3^Δex7-8 mice [4]; 12 months of age, oral, Miglustat even at low doses (FIG. 3E)): partially prevented | astrocytosis (GFAP immunoreactivity) in the VPM/VPL (Cln3^Δex7-8 mice [4]; FIG. 3A): did not have any observable effects | astrocytosis (GFAP immunoreactivity) in the DLG (Cln3^Δex7-8 mice [4]; FIG. 3B): prevented astrocytosis
